From patent US8481727B2, “Crystals of hydrochloride of pyridazin-3(2H)-one compound and process for production of same” (Nissan Chemical Industries, Ltd., priority 2008, dated 2013)

Assay: Dissolution test, paddle method in Japanese Pharmacopoeia (Test Example 1)
Assay type: physicochemical
Details: about 10 mg in 900 ml test fluid, 50 rpm; dissolution test first fluid (pH 1.2) and second fluid (pH 6.8); sampling at 10, 30, 60 and 120 minutes; UV measurement; compared with A-form crystal
Method: About 10 mg of each of A-form crystal (Form A) obtained in Example 1, B-form crystal (Form B) obtained in Example 2 and H-form crystal (Form H) obtained in Example 3 was sampled, and a test was carried out at 50 rpm by the dissolution test method paddle method in Japanese Pharmacopoeia using 900 ml of a test fluid. Upon expiration of 10 minutes, 30 minutes, 60 minutes and 120 minutes after initiation of the test, sampling was carried out, and UV measurements were carried out, whereupon the dissolution ratios were calculated. Here, as the dissolution tester, NTR-VS6P manufactured by TOYAMA SANGYO CO., LTD. was used; as the spectrophotometer, UV-2400PC manufactured by Shimadzu Corporation was used; and as the test fluid, the dissolution test first fluid (pH 1.2) and second fluid (pH 6.8) were used. The results are shown in FIGS. 3 and 4 (the ordinate represents the dissolution ratio (%), and the abscissa represents the dissolution time (minutes)).

solubility (dissolution ratio): superior to A-form crystal in solubility
SMILES: Cl.O=c1[nH]nc(OCCCc2ccc(Cl)cc2)c(NCc2cccnc2)c1Br [B-form crystal, 4-bromo-6-(3-(4-chlorophenyl)propoxy)-5-(pyridin-3-ylmethylamino)pyridazin-3(2H)-one mono-hydrochloride]
